Where “and” joins values, the source holds several entries; their conditions need not be identical. Equal values may be shown once.
Key:
[1] = Metabolite profile in hepatocytes / in vivo
Text: Metabolites are identified using high-resolution mass spectrometry.

MC38 tumour = assay: MC38 syngeneic tumour model, tumour growth and survival; type: in vivo, mice; details: E9 24 mg/kg BID compared to dasatinib 30 mg/kg QD
Method: Error bars SEM. X-axes: Days. Statistical significance was calculated with two-way ANOVA analysis including Tukey's multiple comparison analysis. ***p<0.001; (B) Body weight kinetics of the mice in (A). Y-axis: Mean body weight change (%).
Y-axis=Mean tumour volume (mm3). […] X-axis=Days. […] X-axis: Days.
Left hand column=compound treatment group; and right hand column=vehicle treatment group. Y axes=Tumour volume (mm3); X axes=Days after inoculation.
FIG. 29: depicts the effect of compound E9 and anti PD-1 mAB (alone or in combination) on in vivo tumour growth (mean+/−SEM) in a MC38 syngeneic tumour model. (A) Y axes=Tumour volume (mm3); X axes=Days after start of therapy. Vehicle+anti PD-1 mAB (squares), vehicle+mIgG1e ctr (circles), E9+anti PD-1 mAB (inverted triangles), and E9+mIgG1e ctr (triangles). (B) Median overall survival.) Y axes=Probability of survival (%); X axes=Days after start of therapy. Vehicle+anti PD-1 mAB (grey/dashed), vehicle+mIgG1e ctr (black/solid), E9+anti PD-1 mAB (grey/solid), and E9+mIgG1e ctr (black/dashed). […] (C) E9 25 mg/kg BID; (D) aPD-1 2.5 mg/kg; (E) E9 50 mg/kg BID+aPD-1 2.5 mg/kg; and (F) vehicle.

[2] = tested on: MC38 murine tumour cell line; assay: TNF-sensitised cell viability assay (CellTiter-Glo); details: Mus musculus
[3] = tested on: NFKB activity in reporter MC38 cells; assay: NFKB luciferase reporter activity in MC38 cells; type: cell-based, murine; details: Mus musculus, MC-38, +10 ng/ml rHuTNF for 8 h
Method: (§1) FIG. 28: depicts: (A) and (B) effect of compound E9 on NFKB activity. […] Luciferase activity was normalised to cells treated with rHuTNF without inhibitor (DMSO only). Y-axis=NFKB activity (%). X-axis=compound concentration (nM); Bar “A” viability without compound and without TNF; bar “B” viability without compound and with 10 ng/ml TNF; and (C) Effect of compound E9 on HDAC4 phosphorylation. […] Whole cell lysates were analysed in a Meso Scale Discovery (MSD) assay with anti-HDAC4 capture and anti-pHDAC4 detection antibodies. HDAC4 phosphorylation was normalized to untreated PANC-1 cells (DMSO only). Y-axis=HDAC4 phosphorylation (%). X-axis=Compound concentration (nM).

[4] = biological target: MDR1 pump (P-gp), MDCK-MDR1 cells (Homo sapiens (Human), UniProt P08183); assay: MDR1-MDCK effective efflux assay; details: Table 5.1B
MDR1 (P-gp) = MDR1 (P-gp) (Homo sapiens (Human), UniProt P08183); assay: MDR1-MDCK effective efflux assay; details: dog; for efflux ratio: Table 5.1B
[5] = tested on: SIK3 WT and KO MC38 clones; assay: TNF-mediated killing of SIK3 wildtype vs SIK3 knockout MC38 clones (CTG); type: cell-based, mouse; details: sub-optimal TNF (<10 ng/ml), 72 h
Method: The assay was performed as follows: MC38 SIK3 KO clones were generated using CRISPR. Cells were transfected with RNP complexes (Cas9+gRNA) containing gRNAS targeting SIK3 or non-targeting sequences (control). […] Subsequently, single cell clones were generated by limiting dilution. CRISPR-derived mutations in single clones were detected by next-generation sequencing and analysed using CRISPResso. Knockout and wildtype clones were selected and plated overnight. […] Cells treated with different concentrations of inhibitor but without TNF served as no TNF control. Cell viability was measured by CTG assay.

[6] = Human plasma-protein binding
HCT116 cells = assay: TNF-sensitised cell viability assay (CellTiter-Glo); details: Homo sapiens, HCT-116, read-out: HCT116 IC50 (at 10 ng/ml rHuTNF)
[7] = in vivo, po, 30 mg/kg
[8] = female, C57BL/6, mouse, in vivo, 7 days
in vitro [9] = details: human, microsomes
[10] = tested on: EMT6 breast cancer tumours; assay: EMT6 immune-excluded (cold) tumour syngeneic mouse model; type: in vivo, BALB/c mice; design: key to Tukey's multiple comparisons test, Significance summary: ns = not significant; details: for Tukey's multiple comparisons test, Significance summary: EMT6 model; for tumour growth inhibition (TGI): EMT6
PANC1 cells = assay: TNF-sensitised cell viability assay (CellTiter-Glo); details: Homo sapiens, PANC-1, read-out: PANC IC50 (at 100 ng/ml rHuNF)
CSF1R = CSF1R (Homo sapiens (Human), UniProt P07333); type: biochemical; details: Kinase Profiler
SIK3 = SIK3 (Homo sapiens (Human), UniProt Q9Y2K2); assay: SIK3 kinase inhibition (IC50); details: read-out: Kinase: IC50 (nM) SIK3
[11] = tested on: NFKB activity in reporter PANC-1 cells; assay: NFKB luciferase reporter activity in PANC-1 cells; type: cell-based; details: Homo sapiens; PANC-1 reporter cells, +10 ng/ml rHuTNF for 8 h
Method: Luciferase activity was normalized to PANC-1 cells treated with rHuTNF without inhibitor (DMSO only). Y-axis=NFKB activity (%). […] Whole cell lysates were analyzed in a Meso Scale Discovery (MSD) assay with anti-HDAC4 capture and anti-pHDAC4 detection antibodies. HDAC4 phosphorylation was normalized to untreated PANC-1 cells (DMSO only). Y-axis=HDAC4 phosphorylation (%). X-axis=Compound concentration (nM).
as §1

in vitro [12] = details: mouse, microsomes

Chain of CSF1R (P07333 20-972 limits assumed): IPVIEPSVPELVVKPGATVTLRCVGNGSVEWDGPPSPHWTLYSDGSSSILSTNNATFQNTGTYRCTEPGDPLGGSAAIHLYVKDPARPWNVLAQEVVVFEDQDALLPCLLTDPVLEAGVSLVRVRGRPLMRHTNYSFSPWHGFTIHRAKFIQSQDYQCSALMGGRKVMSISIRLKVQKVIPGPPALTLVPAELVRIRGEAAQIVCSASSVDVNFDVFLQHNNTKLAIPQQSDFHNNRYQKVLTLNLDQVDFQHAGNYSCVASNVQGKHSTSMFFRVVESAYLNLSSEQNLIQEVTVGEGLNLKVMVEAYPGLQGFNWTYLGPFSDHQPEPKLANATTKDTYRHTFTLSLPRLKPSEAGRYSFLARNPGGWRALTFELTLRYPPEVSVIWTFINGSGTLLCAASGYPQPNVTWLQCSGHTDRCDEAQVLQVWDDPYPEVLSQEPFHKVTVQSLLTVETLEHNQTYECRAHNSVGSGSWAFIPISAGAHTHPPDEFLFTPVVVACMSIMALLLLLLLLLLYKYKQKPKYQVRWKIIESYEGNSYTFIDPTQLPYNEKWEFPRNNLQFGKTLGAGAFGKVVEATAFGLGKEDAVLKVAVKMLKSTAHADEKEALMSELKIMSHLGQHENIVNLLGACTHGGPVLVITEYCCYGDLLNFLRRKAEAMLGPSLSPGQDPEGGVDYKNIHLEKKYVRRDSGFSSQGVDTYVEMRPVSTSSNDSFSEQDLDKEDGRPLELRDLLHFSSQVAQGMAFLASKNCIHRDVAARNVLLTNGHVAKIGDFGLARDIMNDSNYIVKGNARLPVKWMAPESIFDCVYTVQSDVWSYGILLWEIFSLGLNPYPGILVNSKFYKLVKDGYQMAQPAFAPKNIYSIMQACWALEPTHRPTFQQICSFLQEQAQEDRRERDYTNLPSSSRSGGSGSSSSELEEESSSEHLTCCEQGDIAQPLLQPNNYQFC

## Cc1nc(Nc2ncc(C(=O)Nc3c(CF)csc3Cl)s2)cc(N2CCN(C)CC2)n1 [Compound E9, N-(2-chloro-4-(fluoromethyl)thiophen-3-yl)-2-((2-methyl-6-(4-methylpiperazin-1-yl)pyrimidin-4-yl)amino)thiazole-5-carboxamide]
[1]
  quinone-imine reactive metabolite: not observed
MC38 tumour
  tumour growth inhibition: superior and more uniform tumour growth inhibition
[2]; MC-38, read-out: MC38 IC50 (at 100 ng/mL rMuTNF)
  IC50: < 0.1 µM
[2]; MC-38, read-out: mean EC50 of sensitising MC38 tumour cells to TNF-mediated killing
  EC50: < 0.1 µM
[3]
  EC50: 0.389 µM
[4]
  MDCK-MDR1 cells, Mean Efflux Ratio (MDR1): 26
MDR1 (P-gp); MDCK-MDR1
  Papp: 5 ×10⁻⁶ cm/s
MDR1 (P-gp); MDCK-MDR1, MDCK-MDR1 cells, Mean Efflux Ratio (MDR1)
  efflux ratio: 20 to 30
MDR1 (P-gp); MDCK-MDR1, P-gP driven efflux ratio (MDR1/wt)
  efflux ratio: 27
[5]
  TNF-mediated killing in SIK3 WT vs KO MC38 clones: induced TNF-mediated killing only in SIK3 WT clones
[6]; Table 5.1A
  Human plasma-protein binding, Percentage unbound (%): 1%
[6]; human, plasma
  recovery at 4 h: 92%
HCT116 cells
  IC50: < 0.1 µM
[7]; male, CD1, mouse
  % AUCextrap, Free: 0.49%
  % AUCextrap, Total: 0.49%
  AUCinf (nM*h), Free: 239.92 nM·h
  AUClast (nM*h), Free: 238.75 nM·h
[7]; mouse
  Rsq, Free: 0.84
  Rsq, Total: 0.84
[8]
  DLT@BID dosing: n.d. @50 mg/kg
  DLT@QD dosing: n.d. @50 mg/kg
  HRD in vivo @BID: 50 mg/kg
  HRD in vivo @QD: 50 mg/kg
In vitro [9]
  half-life: 11 min
  microsomal CLint: 131 µL/min/mg
[10]; E9 25 mg/kg bid vs. E9 […] bid
  Tukey's multiple comparisons test, Significance summary: ns
[10]; E9 25 mg/kg qd vs. E9 5 mg/kg bid
  Tukey's multiple comparisons test, Significance summary: ns
[10]; 5 mg/kg BID
  tumour growth inhibition (TGI): 24% and 25%
[10]; 25 mg/kg BID
  tumour growth inhibition (TGI): 37%
[10]; 25 mg/kg QD
  tumour growth inhibition (TGI): 9%
[10]; Vehicle vs. E9 25 mg/kg qd
  Tukey's multiple comparisons test, Significance summary: ns
PANC1 cells
  IC50: < 0.1 µM
CSF1R
  CSF1R residual activity: less than 1%
SIK3
  IC50: < 20 nM
[11]
  EC50: 0.405 µM
In vitro [12]
  half-life: 9 min
  microsomal CLint: 158 µL/min/mg
